Experiments:
[1] = system: Propionibacterium acnes; assay: Antimicrobial efficacy in analogy to challenge test NF EN ISO11930, P. acnes; type: cell-based; settings: 0.1 wt.-% single active; for Propionibacterium acnes colony count: 24 h after contamination, 22° C., initial count 310000 cfu/ml
From the text: The wells are contaminated with either Propionibacterium acnes or Escherichia coli at 2.5*10^5 to 5.6*10^5 cfu/ml to obtain the initial contamination as outlined in table 1. […] (The term “Log reduction” is a well-known mathematical term used to show the relative number of cells, germs, microbes, etc., reduced in or on something, e.g. a 2 log reduction means the number of microbes is 100 times smaller and a 3 log reduction means the number of microbes is 1000 times smaller).

[2] = system: Escherichia coli; assay: Antimicrobial efficacy in analogy to challenge test NF EN ISO11930, E. coli; type: cell-based; settings: 0.1 wt.-% single active; for Escherichia coli colony count: 24 h after contamination, 22° C., initial count 250000 cfu/ml
From the text: The wells are contaminated with either Propionibacterium acnes or Escherichia coli at 2.5*10^5 to 5.6*10^5 cfu/ml to obtain the initial contamination as outlined in table 1.

Compound | Propionibacterium acnes colony count [1] [cfu/ml] | Δ (change of microorganism count t = 24 h vs t = 0) [2] | Escherichia coli colony count [2] [cfu/ml] | Log reduction ([1]; 24 h vs 0 h)
O=C(CO)[C@H](O)CO (racemic) [erythrulose] | 3000 | +112% | 530000 | –
CC(=O)OC/C=C(C)/C=C/C=C(C)/C=C/C1=C(C)CCCC1(C)C [retinyl acetate] | 3000 | +112% | 530000 | 2
